Values of other authors, collected in US20140171466A1, “PAIN MANAGEMENT IN SICKLE CELL ANEMIA” (priority 2012, published 2014).
“Also recorded” adds a separate entry of the source. Read-outs that look alike come from different tables or passages of the source.

Assays:
nonhuman primates = settings: systemic administration
mice = settings: systemically administered
[1] = compound on its own
[2] = in vivo

O=C1NCN(c2ccccc2)C12CCN(C1CCC3CCCc4cccc1c43)CC2 (stereo in doubt) [Compound 7, ((1 S,3aS)-8-(2,3,3a,4,5,6-hexahydro-1H-phenalen-1-yl)-1-phenyl-1,3,8-triaza-spiro[4.5]decan-4-one)]
spinal anti-nociceptive action (nonhuman primates): spinal anti-nociceptive action of NOP agonists has been confirmed
morphine conditioned place preference (CPP) (mice): block morphine conditioned place preference (CPP)

CCCCCCC(C)(C)c1ccc([C@@H]2C[C@H](O)CC[C@H]2CCCO)c(O)c1 [CP 55,940]
deep hyperalgesia incited by H/R (BERK mice): ameliorated
hyperalgesia (BERK sickle mice; low dose 0.3 mg/kg): attenuated hyperalgesia

O=C1Cc2ccccc2N1C1CCN(C2CCCCCCC2)CC1 [Compound 3, 1-(1-cyclooctylpiperidin-4-yl)-indolin-2-one]
reward in the CPP paradigm [1]: not rewarding on its own

CC1(N2CCC(n3c([C@@H]4CCCNC4)nc4ccccc43)CC2)CCCCCCC1 [Compound 10, 1-[1-(1-methylcyclooctyl)-4-piperidinyl]-2-[(3R)-3-piperidinyl]-1H-benzimidazole]
anxiolytic effects [2]: exhibits anxiolytic effects
effect on memory or locomotion [2]: no effect on memory or locomotion

CN1CC[C@]23c4c5ccc(O)c4O[C@H]2[C@@H](O)C=C[C@H]3[C@H]1C5 [morphine]
hyperalgesia (BERK sickle mice; high dose 20 mg/kg, 20 mg/kg): effective; also recorded: markedly attenuated
